{"source": "patent US11464785B2", "about": "“Treatment of addiction and impulse-control disorders using PDE7 inhibitors” (priority 2010, dated 2022)", "key": {"dopaminergic VTA neurons": {"tested_on": "dopaminergic VTA neurons", "assay": "Whole-cell current clamp recordings from rat VTA horizontal slices", "type": "cell-based", "excerpt": "The reinforcing effects of nicotine are believed to result from its activation of dopaminergic neurons in the ventral tegmental area (VTA) (Pidoplichko V I et al., Nature 390:401-404 (1997); Liu L, et al., Nicotine persistently activates ventral tegmental area dopaminergic neurons via nicotinic acetylcholine receptors containing α4 and α6 subunits. Mol Pharmacol, 81(4):541-8 (2012)). The inventors sought to evaluate the anti-addictive potential of PDE7 inhibitors by studying their ability to modify basal and drug of abuse-induced changes in VTA dopamine activity by performing whole-cell current clamp recordings from rat VTA horizontal slices ex vivo. For this purpose nicotine was used as an example of drugs of abuse.\nDopaminergic neurons were identified by the presence of a large hyperpolarizing current. Johnson, S. W., et al., “Opioids excite dopamine neurons by hyperpolarization of local interneurons,”J. Neurosci 12:483-488 (1992).\nAn additional electrophysiology study was completed to evaluate the effect of the PDE7 inhibitor OMS182399 on VTA DA neuronal activity in the setting of cocaine, morphine or alcohol. The preparation of VTA slices was as described above in Example 8.\nDrug-induced changes in firing rate were calculated by averaging the effects after drug administration (five minutes) and normalizing to the pre-drug baseline. All the numerical data are given as mean±s.e.m. Data were compared and analyzed by utilizing two-way ANOVA for repeated measures (treatment×time), or Student's t-test for repeated measures, when appropriate. Statistical analysis was performed by means of the GraphPad Prism program. The significance level was established at P<0.05.\nThe acute effect of OMS182399 was investigated on dopamine neurons of the VTA in a rat horizontal brain slice preparation containing the midbrain. Whole-cell current-clamp recordings were performed from VTA dopamine neurons."}, "open field activity": {"tested_on": "open field activity", "assay": "Open field activity model", "type": "in vivo, wild type C57BL/6 mice", "settings": "C57BL/6 mice; SKF82958 1 mg/kg; FIG. 36", "procedure": "In order to assess the ability of PDE7 inhibitors to enhance DRD1 signaling in vivo, the effects of the PDE7 inhibitor OMS182401 and the DRD1 agonist SKF82958, alone and in combination, were evaluated in an open field activity model using wild type C57BL/6 mice."}, "[1]": {"tested_on": "rat model of cocaine addiction"}, "[2]": {"tested_on": "rat model of cocaine addiction", "type": "in vivo, rats", "procedure": "PDE7 inhibitors and DRD1 agonists were next tested for their effect on cocaine priming-induced relapse. Rats were trained to self-administer cocaine, as above, and were then exposed to extinction conditions. Cocaine was replaced with saline solution. […] Rats were treated with vehicle or agent and ten minutes later were administered cocaine. Lever pressing was counted for one hour following cocaine administration. […] Once again, administration of PDE7 inhibitors and dopamine D1 agonist had very different results in cocaine addicted animals."}, "[3]": {"tested_on": "rat model of cocaine addiction", "settings": "in vivo"}, "binge eating model": {"tested_on": "binge eating model", "assay": "Stress-induced binge eating of highly palatable food (HPF)", "type": "in vivo, female rats", "settings": "topiramate 60 mg/kg i.p.", "excerpt": "To mimic binge eating disorder in laboratory animals, a binge eating model was developed where binge eating is elicited by yo-yo dieting and stressful exposure to Highly Palatable Food (HPF). In this model, female rats are exposed to repeated cycles of restriction and a stressful procedure characterized by exposure of animals to HPF without the possibility of accessing it. This procedure elicits a selective increase of highly palatable food intake that is overconsumed during a very short period of time. As described below, using this model, endowed with significant predictive and face validity, the effect of PDE7 inhibitors on binge eating (one of the most significant forms of food addiction) was investigated.\nReinstatement of binge eating behavior has been obtained in experimental animals through a combination of repeated food restriction and stress. [Cifani et al, Psychopharmacology 204:113-125 (2009)]. For the present invention, stress-induced binge eating was tested as in Cifani.\nRats were housed in individual cages and were given chow and water ad libitum for two weeks prior to the experiment. […]\nAfter one hour, animals were given HPF and ad libitum chow. Intake of HPF was measured after two hours."}, "[4]": {"tested_on": "dopamine release in the nucleus accumbens", "assay": "In vivo microdialysis of dopamine release in the nucleus accumbens", "parameters": "species or system Male Wistar rats", "settings": "nicotine 0.4 mg/kg sc", "protocol": "Male Wistar rats (Harlan, Italy) weighing 275-300 g were housed in groups of six per cage with standard food (Morini, Italy) and water ad libitum, for at least five days in the central animal room under constant temperature (23° C.), humidity (60%) and a 12 hour light/dark cycle (light from 8 a.m. to 8 p.m.).\nConcentric dialysis probes with a dialysing portion of 1.5 mm were prepared with AN69 (acrylonitrile sodium methallyl sulfonate copolymer) dialysis fiber (310 μm o.d. 220 μm i.d. Hospal, Dasco, Italy), according to the method of De Luca et al. (2007). Rats were anaesthetized with chloral hydrate (400 mg/kg i.p.) and placed in a stereotaxic apparatus. The scalp was incised and the skull leveled between lambda and bregma. […] Samples from each of the NAc shell and core were taken every 10 or 20 minutes (depending on the experiments) and analyzed.\nDialysate samples (10 or 20 μl) were injected into an HPLC equipped with a reverse phase column (C8 3.5 um, Waters, Mildford, Mass., USA) and a coulometric detector (ESA, Coulochem II, Bedford, Mass.) to quantify DA. […]\nNAc shell and core dialysate DA was monitored for at least three hours. […] Dialysate DA was monitored for at least three hours after nicotine treatment."}}, "data": [{"smiles": "Br.C=CCN1CCc2c(cc(O)c(O)c2Cl)C(c2ccccc2)C1", "note": "(racemic) [SKF82958, (±)-6-Chloro-7,8-dihydroxy-3-allyl-1-phenyl-2,3,4,5-tetrahydro-1H-3-benzazepine hydrobromide]", "values": [{"measurement": "nicotine-induced activation of VTA neurons, single agents at low concentration", "setting": "dopaminergic VTA neurons; 30 nM OMS182401 alone or 1 uM SKF82958 alone", "result": "ineffective"}, {"measurement": "spontaneous firing rate of dopaminergic VTA neurons", "setting": "dopaminergic VTA neurons; OMS182401, SKF82958 at 3.0 and 10.0 uM, FIG. 29A", "result": "a similar effect was observed"}, {"measurement": "open-field activity, single agents", "setting": "open field activity", "result": "stimulated open-field activity at 1 mg/kg"}, {"measurement": "behavior of animals given the agent with cocaine", "setting": "[1]; rat, in vivo, ip", "result": "exhibited significantly abnormal behavior and were extremely aggressive"}, {"measurement": "cocaine self-administration, short-access model", "setting": "[1]; rats, 2-hour sessions, OMS182401 15 minutes before session (FIG. 3), SKF82958 1.0 mg/kg i.p. (FIG. 4)", "result": "significantly reduced cocaine self-administration in the short-access model"}, {"measurement": "cocaine self-administration, first hour after treatment", "setting": "[1]; rats, short-access, i.p.", "result": "a significant reduction in self-administration was observed at both doses"}, {"measurement": "cocaine self-administration, two hours after treatment", "setting": "[1]; rats, short-access, i.p.", "result": "the trend of self-administration reduction was non-significant"}, {"measurement": "behavior of treated animals in cocaine priming test", "setting": "[2]; rat, in vivo", "result": "exhibited significantly abnormal behavior"}, {"measurement": "cocaine priming-induced lever pressing", "setting": "[2]; rats, agent ten minutes before cocaine, lever pressing for one hour, FIGS. 13 and 14", "result": "significantly reduced lever pressing induced by cocaine priming"}, {"measurement": "lever pressing when administered on its own (addictive properties)", "setting": "[3]", "result": "Neither agent caused increased lever pressing"}]}, {"smiles": "CCO", "note": "[Ethanol]", "values": [{"measurement": "firing rate of VTA DA cells", "setting": "dopaminergic VTA neurons; Ethanol 100 mM, 5 min, n=6", "result": "158.3±26.7 % of basal firing rate"}]}, {"smiles": "CC1(C)O[C@@H]2[C@@H](CO[C@@]3(COS(N)(=O)=O)OC(C)(C)O[C@@H]23)O1", "note": "[Topiramate]", "values": [{"measurement": "times of observation at which HPF intake was reduced, R+S group, highest dose", "setting": "binge eating model; OMS182056 3 mg/kg i.p., p<0.05", "result": "evident at all the times of observation"}, {"measurement": "HPF intake, restricted and stressed (R+S) group", "setting": "binge eating model; rats, two hours, OMS182401 3.0 mg/kg i.p., OMS182056 1.0 and 3.0 mg/kg i.p., FIGS. 23D, 24D, 25D", "result": "reduced HPF intake only in the R+S group"}]}, {"smiles": "COC(=O)[C@H]1[C@@H](OC(=O)c2ccccc2)C[C@@H]2CC[C@H]1N2C", "note": "[cocaine]", "values": [{"measurement": "firing rate of VTA DA cells", "setting": "dopaminergic VTA neurons; cocaine 1 μM, 5 min, n=7", "result": "36.4±9.1 % of basal firing rate"}]}, {"smiles": "CN1CC[C@]23c4c5ccc(O)c4O[C@H]2[C@@H](O)C=C[C@H]3[C@H]1C5", "note": "[morphine]", "values": [{"measurement": "firing rate of VTA DA cells", "setting": "dopaminergic VTA neurons; morphine, 3 min, n=7", "result": "224.4±19.5 % of basal firing rate"}]}, {"smiles": "CN1CCC[C@H]1c1cccnc1", "note": "[nicotine]", "values": [{"measurement": "DA release in the NAc shell", "setting": "[4]", "result": "increases DA release in the NAc shell"}]}]}
